Reference: the supplement of paper PMC10307832

What was measured:
Test in all cases: relative viability (nuclei count vs DMSO), 5 days (fraction); higher = more cells survive
NCI-H1651 = system: NCI-H1651
Procedure, shortened: (§1)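 Values are medians from duplicate plates. Each reflects relative viability, defined as the nuclei count of treated wells over that of vehicle wells. Lung cancer cell lines in 1536-well plates were pin-tool dosed one day after seeding with one drug alone or with a fixed anchor-drug dose plus five library-drug doses (not always all listed) in √10 steps, then fixed, stained and imaged at 4× after 5 days.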

LC-2-ad = system: LC-2-ad
Procedure, shortened: as §1

NCI-H1755 = system: NCI-H1755
Procedure, shortened: as §1

SK-LU-1 = system: SK-LU-1
Procedure, shortened: as §1

LK-2 = system: LK-2
Procedure, shortened: as §1

EMC-BAC-2 = system: EMC-BAC-2
Procedure, shortened: as §1

NCI-H2228 = system: NCI-H2228
Procedure, shortened: as §1

H3255 = system: H3255
Procedure, shortened: as §1

NCI-H2087 = system: NCI-H2087
Procedure, shortened: as §1

NCI-H2347 = system: NCI-H2347
Procedure, shortened: as §1

NCI-H1395 = system: NCI-H1395
Procedure, shortened: as §1

NCI-H661 = system: NCI-H661
Procedure, shortened: as §1

Question: Which relative viability (NCI-H1651; first compound 50 µM) does the source give for `O=C(O)CCCCC(CCSCc1ccccc1)SCc1ccccc1` (configuration not stated) [CPI-613] + COc1cccc2cc(-c3nc([C@H]4CC[C@H](C(=O)O)CC4)n4ncnc(N)c34)[nH]c12 [OSI-027] (partner 0.5 µM) here?
Answer: 0.616

Question: And the relative viability (NCI-H1651; first compound 158.11 µM)?
Answer: 0.333

Question: What about the relative viability (NCI-H1651; first compound 500 µM) of the same compound?
Answer: 0.0775

Question: And the relative viability (LC-2-ad; first compound 5 µM)?
Answer: 0.893

Question: And the relative viability (LC-2-ad; first compound 15.81 µM)?
Answer: 0.744

Question: What about the relative viability (LC-2-ad; first compound 50 µM) of the same compound?
Answer: 0.8

Question: And the relative viability (LC-2-ad; first compound 158.11 µM)?
Answer: 0.505

Question: And the relative viability (LC-2-ad; first compound 500 µM)?
Answer: 0.0505

Question: And the relative viability (NCI-H1755; first compound 5 µM)?
Answer: 0.693

Question: What about the relative viability (NCI-H1755; first compound 15.81 µM) of the same compound?
Answer: 0.687

Question: What about the relative viability (NCI-H1755; first compound 50 µM) of the same compound?
Answer: 0.66

Question: And the relative viability (NCI-H1755; first compound 158.11 µM)?
Answer: 0.504

Question: And the relative viability (NCI-H1755; first compound 500 µM)?
Answer: 0.207

Question: What about the relative viability (SK-LU-1; first compound 5 µM) of the same compound?
Answer: 0.285

Question: And the relative viability (SK-LU-1; first compound 15.81 µM)?
Answer: 0.26

Question: And the relative viability (SK-LU-1; first compound 50 µM)?
Answer: 0.296

Question: And the relative viability (SK-LU-1; first compound 158.11 µM)?
Answer: 0.152

Question: What about the relative viability (SK-LU-1; first compound 500 µM) of the same compound?
Answer: 0.0346

Question: And the relative viability (LK-2; first compound 5 µM)?
Answer: 0.189

Question: What about the relative viability (LK-2; first compound 15.81 µM) of the same compound?
Answer: 0.19

Question: What about the relative viability (LK-2; first compound 50 µM) of the same compound?
Answer: 0.18

Question: And the relative viability (LK-2; first compound 158.11 µM)?
Answer: 0.161

Question: What about the relative viability (LK-2; first compound 500 µM) of the same compound?
Answer: 0.128

Question: What about the relative viability (EMC-BAC-2; first compound 5 µM) of the same compound?
Answer: 0.385

Question: What about the relative viability (EMC-BAC-2; first compound 15.81 µM) of the same compound?
Answer: 0.334

Question: What about the relative viability (EMC-BAC-2; first compound 50 µM) of the same compound?
Answer: 0.337

Question: And the relative viability (EMC-BAC-2; first compound 158.11 µM)?
Answer: 0.181

Question: What about the relative viability (EMC-BAC-2; first compound 500 µM) of the same compound?
Answer: 0.0272

Question: And the relative viability (NCI-H2228; first compound 5 µM)?
Answer: 0.538

Question: And the relative viability (NCI-H2228; first compound 15.81 µM)?
Answer: 0.467

Question: What about the relative viability (NCI-H2228; first compound 50 µM) of the same compound?
Answer: 0.525

Question: What about the relative viability (NCI-H2228; first compound 158.11 µM) of the same compound?
Answer: 0.192

Question: What about the relative viability (NCI-H2228; first compound 500 µM) of the same compound?
Answer: 0.072

Question: What about the relative viability (H3255; first compound 5 µM) of the same compound?
Answer: 0.569

Question: And the relative viability (H3255; first compound 15.81 µM)?
Answer: 0.501

Question: What about the relative viability (H3255; first compound 50 µM) of the same compound?
Answer: 0.612

Question: What about the relative viability (H3255; first compound 500 µM) of the same compound?
Answer: 0.471

Question: And the relative viability (NCI-H2087; first compound 5 µM)?
Answer: 0.501

Question: What about the relative viability (NCI-H2087; first compound 15.81 µM) of the same compound?
Answer: 0.462

Question: What about the relative viability (NCI-H2087; first compound 50 µM) of the same compound?
Answer: 0.471

Question: And the relative viability (NCI-H2087; first compound 158.11 µM)?
Answer: 0.195

Question: What about the relative viability (NCI-H2087; first compound 500 µM) of the same compound?
Answer: 0.0169

Question: What about the relative viability (NCI-H2347; first compound 5 µM) of the same compound?
Answer: 0.325

Question: What about the relative viability (NCI-H2347; first compound 15.81 µM) of the same compound?
Answer: 0.407

Question: What about the relative viability (NCI-H2347; first compound 50 µM) of the same compound?
Answer: 0.336

Question: And the relative viability (NCI-H2347; first compound 158.11 µM)?
Answer: 0.373

Question: And the relative viability (NCI-H2347; first compound 500 µM)?
Answer: 0.456

Question: And the relative viability (NCI-H1395; first compound 5 µM)?
Answer: 0.67

Question: What about the relative viability (NCI-H1395; first compound 15.81 µM) of the same compound?
Answer: 0.602

Question: And the relative viability (NCI-H1395; first compound 50 µM)?
Answer: 0.668

Question: What about the relative viability (NCI-H1395; first compound 158.11 µM) of the same compound?
Answer: 0.694

Question: What about the relative viability (NCI-H1395; first compound 500 µM) of the same compound?
Answer: 0.568

Question: What about the relative viability (NCI-H661; first compound 5 µM) of the same compound?
Answer: 0.684

Question: What about the relative viability (NCI-H661; first compound 15.81 µM) of the same compound?
Answer: 0.601

Question: And the relative viability (NCI-H661; first compound 50 µM)?
Answer: 0.597

Question: And the relative viability (NCI-H661; first compound 158.11 µM)?
Answer: 0.413

Question: What about the relative viability (NCI-H661; first compound 500 µM) of the same compound?
Answer: 0.126
